In patent US8003615B2, “Stable vitamin B6 derivative” (Daiichi Fine Chemical Co., Ltd., priority 2003, dated 2011):

Columns and labels:
[1] = format: physicochemical; conditions: 0.5% (w/v) aqueous solution; for coloring of the aqueous solution after the light irradiation: D65 fluorescent lamp 13,000 Lx; for decomposition after light irradiation: pH about 6.3-7.2, D65 fluorescent lamp 13,000 Lx, room temperature, 14 days
Method: A 0.5% (w/v) aqueous solution of pyridoxine 3-β-D-glucoside (pH 6.7) in a volume of 0.3 ml was enclosed in a 1-ml volume glass ampoule, and irradiated with a D65 fluorescent lamp (Toshiba) for 14 days. The irradiation was performed at room temperature with an illumination of 13,000 Lx. Samples before the irradiation and after 1 day, 7 days and 14 days of the irradiation were analyzed by HPLC to measure a pyridoxine 3-β-D-glucoside content. A solution of pyridoxine hydrochloride of the same concentration (adjusted to pH 6.7) was treated in the same manner, and the results were compared. The HPLC measurement conditions were as follows.
Column: Inertsil ODS-3 ([…], ([…], φ4.6×150 mm, GL Science Inc.)
Eluent acetonitrile:0.1% (v/v) trifluoroacetic acid, 5 mM sodium 1-hexanesulfonate=1:9
Column temperature: 40° C.
Aqueous solutions (0.5% (w/v)) of pyridoxine 3-β-D-glucoside hydrochloride, pyridoxal 3-β-D-glucoside, pyridoxamine 3-β-D-glucoside, pyridoxine 3-β-D-galactoside, and pyridoxine hydrochloride (adjusted to pH 6.3 to 7.2 with HCl or NaOH) were each sealed in a volume of 0.3 ml in a 1-ml volume glass ampoule, and light irradiation and HPLC quantification were performed in the same manner as in Test Example 1. […] Test Example 4 (thermal stability of pyridoxine 3-β-D-glucoside hydrochloride and various 3-glycosides) […]

[2] = Thermal stability of aqueous solution kept at 50° C., HPLC; format: physicochemical; conditions: 0.5% (w/v) aqueous solution; for coloring of the aqueous solution after the warming: 50° C. for 90 days; for decomposed by warming: pH about 6.3-7.2, 50° C. for 90 days
Method: A 0.5% (w/v) aqueous solution of pyridoxine 3-β-D-glucoside (pH 6.7) in a volume of 0.3 ml was sealed in a 1-ml volume glass ampoule, and kept at 50° C. under light shielding. The sample was warmed for 90 days, and analyzed during the warming by HPLC (analysis conditions were the same as those applied in Test Example 1) to measure a pyridoxine 3-β-D-glucoside content. A solution of pyridoxine hydrochloride of the same concentration (adjusted to pH 6.7) was treated in the same manner, and the results were compared.
Aqueous solutions (0.5% (w/v)) of pyridoxine 3-β-D-glucoside hydrochloride, pyridoxal 3-β-D-glucoside, pyridoxamine 3-β-D-glucoside, pyridoxine 3-β-D-galactoside, pyridoxine hydrochloride, pyridoxal hydrochloride, and pyridoxamine hydrochloride (adjusted to pH 6.3 to 7.2 with HCl or NaOH) were each sealed in a volume of 0.3 ml in a 1-ml volume glass ampoule, […] in the same manner as in Test Example 2.
0.5% (w/v) Aqueous solutions of pyridoxine 3,4′-cyclic sodium phosphate and pyridoxine hydrochloride (adjusted to pH 6.5 to 6.8) were each sealed in a volume of 0.3 ml in a 1-ml volume glass ampoule, and warming at 50° C. and HPLC analysis were performed in the same manner as in Test Example 2.

mouse B16 melanoma cells [3] = assay: Test for melanin production suppression and cell survival rate in cultured cells; format: cell-based; parameters: key to Evaluation (whitening degree of B16 melanoma cells): +: whitening effect comparable to that of the control; ±: whitening effect a little weaker than that of the control; ×: no effect; −: test was not performed; conditions: for Evaluation (whitening degree of B16 melanoma cells): control 100 μg/ml kojic acid; for Cell growth rate: relative to control taken as 100%; for suppressing effect on melanin production: overall conclusion from the tables
Method: Cultured mouse B16 melanoma cells were used. An appropriate amount of MEM medium containing 10% FBS was added to wells of two 6-well plates, and the B16 melanoma cells were inoculated, and incubated at 37° C. with 5 volume % CO2. On the next day, a sample-containing solution was added so that the medium contained the vitamin B6 derivative (pyridoxine 3-β-D-glucoside or pyridoxine 3-β-D-glucoside hydrochloride) at a final solid concentrations shown in FIG. 20, and then mixed. On the 5th day of the culture, the medium was exchanged, and the sample-containing solution was again added. On the next day, the medium was removed, and for one plate, the cells were washed with phosphate buffer (pH 7.0), and then collected. Then, whitening degree of the cultured B16 melanoma cells was evaluated according to the criteria mentioned below by using 100 μg/ml kojic acid as a control. […] The cell growth rate is indicated with a relative ratio based on that of the control, which is taken as 100%.

hairless mouse = conditions: 2% sample applied on the back 90 minutes before ultraviolet irradiation, 2 hours, 5 times/week, ten weeks; positive control DETAPAC
Method: It was evaluated whether or not the sample prepared by the following preparing method suppressed wrinkle formation caused by ultraviolet irradiation.
DETAPAC was used as a positive control.
Mice (10-week old) in each group consisting of 8 mice were applied with each of the aforementioned samples on the back 90 minutes before ultraviolet irradiation, and irradiated with ultraviolet rays of a fixed quantity (Toshiba FL20 S-BLB lamp) for 2 hours (5 times/week) over ten weeks to examine suppressing effect on wrinkle formation.
Wrinkle formation after the ultraviolet irradiation of ten weeks was graded in accordance with the “skin photoaging grades” mentioned below. The results were indicated as averages of the scores for eight mice.

mouse B16 melanoma cells [4] = assay: Melanin production suppression by combination with whitening agent (arbutin); format: cell-based; conditions: substance and arbutin each 100 μM, 5 days culture, intracellular melanin relative to solvent control
Method: Cultured mouse B16 melanoma cells were used. A vitamin B6 derivative (pyridoxine 3-β-D-glucoside) and arbutin (Wako Pure Chemical Industries) dissolved in purified water at given concentrations were each added to the medium at a concentration of 100 μM. With exchanges of the medium during the culture, the cells were cultured for 5 days, and then collected. The cell number was counted, and then intracellular melanin was quantified. As a control added with a solvent, the medium added with purified water was used. Based on the amount of the melanin observed for the control added with the solvent, which was taken as 1, the relative amount of intracellular melanin observed for each sample concentration was considered a melanin production ratio.

[5] = 50° C., in pharmaceutical preparations; cited from earlier work
[6] = final concentration 333.3 μg/mL

## Cc1ncc(CO)c(C=O)c1O[C@@H]1O[C@H](CO)[C@@H](O)[C@H](O)[C@H]1O [pyridoxal 3-β-D-glucoside, Pyridoxal 3-β-D-glucoside]
[1]
  coloring of the aqueous solution after the light irradiation: no coloring was observed
[2]
  coloring of the aqueous solution after the warming: no coloring was observed
  decomposed by warming: almost no decomposition

## Cc1ncc(CO)c(C=O)c1O.Cl [pyridoxal hydrochloride, reference compound]
[2]
  coloring of the aqueous solution after the warming: colored in yellow
  decomposed by warming: ~55%

## Cc1ncc(CO)c(CN)c1O[C@@H]1O[C@H](CO)[C@@H](O)[C@H](O)[C@H]1O [pyridoxamine 3-β-D-glucoside, Pyridoxamine 3-β-D-glucoside]
[1]
  coloring of the aqueous solution after the light irradiation: no coloring was observed
  decomposition after light irradiation: not observed
[2]
  coloring of the aqueous solution after the warming: no coloring was observed
  decomposed by warming: almost no decomposition

## Cc1ncc(CO)c(CN)c1O.Cl [pyridoxamine hydrochloride, reference compound]
[2]
  coloring of the aqueous solution after the warming: colored in yellow
  decomposed by warming: ~85%

## Cc1ncc(CO)c2c1OP(=O)([O-])OC2.[Na+] [pyridoxine 3,4′-cyclic sodium phosphate, Pyridoxine 3,4′-cyclic sodium phosphate]
[1]
  decomposition after light irradiation: no decomposition was observed
[2]
  coloring of the aqueous solution after the warming: no coloring was observed
  decomposed by warming: almost no decomposition

## Cc1ncc(CO)c(CO)c1O[C@@H]1O[C@H](CO)[C@H](O)[C@H](O)[C@H]1O [pyridoxine 3-β-D-galactoside, Pyridoxine 3-β-D-galactoside]
[1]
  coloring of the aqueous solution after the light irradiation: no coloring was observed
  decomposition after light irradiation: not observed
[2]
  coloring of the aqueous solution after the warming: no coloring was observed
  decomposed by warming: almost no decomposition

## Cc1ncc(CO)c(CO)c1O[C@@H]1O[C@H](CO)[C@@H](O)[C@H](O)[C@H]1O.Cl [pyridoxine 3-β-D-glucoside hydrochloride]
[1]
  coloring of the aqueous solution after the light irradiation: no coloring was observed
  decomposition after light irradiation: not observed
Mouse B16 melanoma cells [3]; final concentration 100 μg/mL
  Evaluation (whitening degree of B16 melanoma cells): ×
  Cell growth rate: 100%
Mouse B16 melanoma cells [3]; [6]
  Evaluation (whitening degree of B16 melanoma cells): ×
  Cell growth rate: 100%
Mouse B16 melanoma cells [3]; final concentration 1000 μg/mL
  Evaluation (whitening degree of B16 melanoma cells): ×
  Cell growth rate: 97%
Mouse B16 melanoma cells [3]; final concentration 3333 μg/mL
  Evaluation (whitening degree of B16 melanoma cells): +
  Cell growth rate: 87%
Mouse B16 melanoma cells [3]
  suppressing effect on melanin production: superior suppressing effect on melanin production
[2]
  coloring of the aqueous solution after the warming: no coloring was observed
  decomposed by warming: almost no decomposition
Hairless mouse
  suppressing effect on wrinkle formation (skin photoaging grades): comparable to or higher than that of DETAPAC

## Cc1ncc(CO)c(CO)c1O[C@@H]1O[C@H](CO)[C@@H](O)[C@H](O)[C@H]1O [pyridoxine 3-β-D-glucoside, Pyridoxine 3-β-D-glucoside]
[1]
  coloring of the aqueous solution after the light irradiation: no coloring was observed
  decomposition after light irradiation: not observed
Mouse B16 melanoma cells [4]
  suppressing effect on melanin production in combination with arbutin: superior suppressing effect on melanin production
Mouse B16 melanoma cells [3]; final concentration 10 μg/mL
  Evaluation (whitening degree of B16 melanoma cells): ×
  Cell growth rate: 101%
Mouse B16 melanoma cells [3]; final concentration 30 μg/mL
  Evaluation (whitening degree of B16 melanoma cells): ×
  Cell growth rate: 101%
Mouse B16 melanoma cells [3]; final concentration 100 μg/mL
  Evaluation (whitening degree of B16 melanoma cells): ×
  Cell growth rate: 101%
Mouse B16 melanoma cells [3]; final concentration 300 μg/mL
  Evaluation (whitening degree of B16 melanoma cells): ±
  Cell growth rate: 101%
Mouse B16 melanoma cells [3]; final concentration 1000 μg/mL
  Evaluation (whitening degree of B16 melanoma cells): +
  Cell growth rate: 102%
Mouse B16 melanoma cells [3]
  suppressing effect on melanin production: superior suppressing effect on melanin production
[2]
  coloring of the aqueous solution after the warming: no coloring was observed
  decomposed by warming: almost no decomposition

## Cc1ncc(CO)c(CO[C@H]2O[C@H](CO)[C@@H](O)[C@H](O)[C@H]2O)c1O [pyridoxine 4′-α-D-glucoside]
[5]
  long term stability compared with pyridoxine hydrochloride: superior long term stability

## N-(4-pyridoxylmethylene)-L-serine 3-β-D-glucoside
[1]
  decomposition after light irradiation: no decomposition was observed
